Where two headings read alike, the source gives them in different places.
How the values were obtained:
Assay in all cases: Test C pre/postemergence
Type in all cases: in vivo
[1] = tested on: common ragweed (Ambrosia elatior); details: Ambrosia artemisiifolia; for pest or weed control at 62 g/ha: 62 g ai/ha; for pest or weed control at 125 g/ha: 125 g ai/ha; for pest or weed control at 250 g/ha: 250 g ai/ha; for pest or weed control at 500 g/ha: 500 g ai/ha
Method in brief: (§1)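 Percent control is a visual rating (0 none, 100 complete) taken against untreated plants after 12 to 14 days of greenhouse growth. Applications were made preemergence to seeded pots and postemergence to plants at the 1- to 4-leaf stage, in a non-phytotoxic surfactant-containing solvent.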

corn (Zea mays) = details: Zea mays; for Corn plant response rating (crop injury, 0 = no effect, 100 = complete kill) at 62 g/ha: 62 g ai/ha; for Corn plant response rating (crop injury, 0 = no effect, 100 = complete kill) at 125 g/ha: 125 g ai/ha; for Corn plant response rating (crop injury, 0 = no effect, 100 = complete kill) at 250 g/ha: 250 g ai/ha; for Corn plant response rating (crop injury, 0 = no effect, 100 = complete kill) at 500 g/ha: 500 g ai/ha
Method in brief: as §1

[2] = tested on: eastern black nightshade (Solanum ptycanthum); details: Solanum, pre-emergence, Preemergence, read-out: Plant response rating, Nightshade
Method in brief: as §1

[3] = tested on: pigweed (Amaranthus retroflexus); details: Amaranthus retroflexus; for pest or weed control at 62 g/ha: 62 g ai/ha; for pest or weed control at 125 g/ha: 125 g ai/ha; for pest or weed control at 250 g/ha: 250 g ai/ha; for pest or weed control at 500 g/ha: 500 g ai/ha
Method in brief: as §1

[4] = tested on: woolly cupgrass (Eriochloa villosa); details: Eriochloa villosa; for pest or weed control at 62 g/ha: 62 g ai/ha; for pest or weed control at 125 g/ha: 125 g ai/ha; for pest or weed control at 250 g/ha: 250 g ai/ha; for pest or weed control at 500 g/ha: 500 g ai/ha
Method in brief: as §1

[5] = tested on: johnsongrass (Sorghum halepense); details: Sorghum halepense; for pest or weed control at 62 g/ha: 62 g ai/ha; for pest or weed control at 125 g/ha: 125 g ai/ha; for pest or weed control at 250 g/ha: 250 g ai/ha; for pest or weed control at 500 g/ha: 500 g ai/ha
Method in brief: as §1

[6] = post-emergence, Postemergence, scale 0 to 100 (0 no effect, 100 complete control), read-out: Ragweed plant response rating
[7] = post-emergence, Postemergence, scale 0 to 100, read-out: Plant response rating, Ragweed
[8] = pre-emergence, Preemergence, scale 0 to 100, read-out: Plant response rating, Ragweed
[9] = post-emergence, Postemergence, scale 0 to 100 (0 no effect, 100 complete control), read-out: Corn plant response rating
[10] = post-emergence, Postemergence, scale 0 to 100
[11] = pre-emergence, Preemergence, scale 0 to 100
[12] = post-emergence, Postemergence, scale 0 to 100 (0 no effect, 100 complete control), read-out: Pigweed plant response rating
[13] = post-emergence, Postemergence, scale 0 to 100, read-out: Plant response rating, Pigweed
[14] = pre-emergence, Preemergence, scale 0 to 100, read-out: Plant response rating, Pigweed
[15] = post-emergence, Postemergence, scale 0 to 100 (0 no effect, 100 complete control), read-out: Cupgrass, Woolly plant response rating
[16] = post-emergence, Postemergence, scale 0 to 100, read-out: Plant response rating, Cupgrass, Woolly
[17] = pre-emergence, Preemergence, scale 0 to 100, read-out: Plant response rating, Cupgrass, Woolly
[18] = post-emergence, Postemergence, scale 0 to 100 (0 no effect, 100 complete control), read-out: Johnsongrass plant response rating
[19] = post-emergence, Postemergence, scale 0 to 100, read-out: Plant response rating, Johnsongrass
[20] = pre-emergence, Preemergence, scale 0 to 100, read-out: Plant response rating, Johnsongrass

CNc1nc(C2CC2)nc(C(=O)OC)c1Br [Compound 5]
pest or weed control at 62 g/ha [1, 6]: 90% | pest or weed control at 125 g/ha [1, 6]: 95% | pest or weed control at 250 g/ha [1, 7]: 95% | pest or weed control at 500 g/ha [1, 7]: 100% | pest or weed control at 62 g/ha ([1]; pre-emergence, Preemergence, scale 0 to 100, 0 no effect, 100 complete control, read-out: Plant response rating, Ragweed): 85% | pest or weed control at 125 g/ha [1, 8]: 90% | pest or weed control at 250 g/ha [1, 8]: 100% | pest or weed control at 500 g/ha [1, 8]: 100% | Corn plant response rating (crop injury, 0 = no effect, 100 = complete kill) at 62 g/ha (corn (Zea mays); [9]): 10% | Corn plant response rating (crop injury, 0 = no effect, 100 = complete kill) at 125 g/ha (corn (Zea mays); [9]): 40% | Corn plant response rating (crop injury, 0 = no effect, 100 = complete kill) at 250 g/ha (corn (Zea mays); [10]): 40% | Corn plant response rating (crop injury, 0 = no effect, 100 = complete kill) at 500 g/ha (corn (Zea mays); [10]): 45% | Corn plant response rating (crop injury, 0 = no effect, 100 = complete kill) at 62 g/ha (corn (Zea mays); pre-emergence, Preemergence, scale 0 to 100, 0 no effect, 100 complete control, read-out: Plant response rating, Corn): 5% | Corn plant response rating (crop injury, 0 = no effect, 100 = complete kill) at 125 g/ha (corn (Zea mays); pre-emergence, Preemergence, scale 0 to 100, read-out: Plant response rating, Corn): 5% | Corn plant response rating (crop injury, 0 = no effect, 100 = complete kill) at 250 g/ha (corn (Zea mays); [11]): 20% | Corn plant response rating (crop injury, 0 = no effect, 100 = complete kill) at 500 g/ha (corn (Zea mays); [11]): 50% | pest or weed control at 62 g/ha ([2]; 62 g ai/ha, scale 0 to 100, 0 no effect, 100 complete control): 100% | pest or weed control at 125 g/ha ([2]; 125 g ai/ha, scale 0 to 100): 100% | pest or weed control at 250 g/ha ([2]; 250 g ai/ha, scale 0 to 100): 100% | pest or weed control at 500 g/ha ([2]; 500 g ai/ha, scale 0 to 100): 100% | pest or weed control at 62 g/ha [3, 12]: 85% | pest or weed control at 125 g/ha [3, 12]: 90% | pest or weed control at 250 g/ha [3, 13]: 90% | pest or weed control at 500 g/ha [3, 13]: 100% | pest or weed control at 62 g/ha ([3]; pre-emergence, Preemergence, scale 0 to 100, 0 no effect, 100 complete control, read-out: Plant response rating, Pigweed): 60% | pest or weed control at 125 g/ha [3, 14]: 90% | pest or weed control at 250 g/ha [3, 14]: 100% | pest or weed control at 500 g/ha [3, 14]: 100% | pest or weed control at 62 g/ha [4, 15]: 5% | pest or weed control at 125 g/ha [4, 15]: 50% | pest or weed control at 250 g/ha [4, 16]: 50% | pest or weed control at 500 g/ha [4, 16]: 70% | pest or weed control at 62 g/ha ([4]; pre-emergence, Preemergence, scale 0 to 100, 0 no effect, 100 complete control, read-out: Plant response rating, Cupgrass, Woolly): 0% | pest or weed control at 125 g/ha [4, 17]: 0% | pest or weed control at 250 g/ha [4, 17]: 0% | pest or weed control at 500 g/ha [4, 17]: 0% | pest or weed control at 62 g/ha [5, 18]: 0% | pest or weed control at 125 g/ha [5, 18]: 40% | pest or weed control at 250 g/ha [5, 19]: 45% | pest or weed control at 500 g/ha [5, 19]: 45% | pest or weed control at 62 g/ha ([5]; pre-emergence, Preemergence, scale 0 to 100, 0 no effect, 100 complete control, read-out: Plant response rating, Johnsongrass): 5% | pest or weed control at 125 g/ha [5, 20]: 20% | pest or weed control at 250 g/ha [5, 20]: 60% | pest or weed control at 500 g/ha [5, 20]: 70%
